Test results from ChEMBL document CHEMBL5331091, “Design, synthesis and evaluation of antitumor activity of selective PRMT6 inhibitors” (Eur J Med Chem, 2023).

Tests used:
[1] = tested on: MDA-MB-435; assay: Antiproliferative activity against human MDA-MB-435 cells for 3 days by MTT assay; conditions: MDA-MB-435, 72 h
[2] = tested on: MDA-MB-435; assay: Antiproliferative activity against human MDA-MB-435 cells for 5 days by MTT assay; conditions: MDA-MB-435, 120 h
[3] = tested on: HCC827; assay: Induction of apoptosis in human HCC827 cells assessed as early apoptotic cells at 40 uM for 3 days by Annexin V and PI staining based flow cytometric analysis (reference value: 0.44%); type: functional; conditions: time 3 day
[4] = tested on: HCC827; assay: Antiproliferative activity against human HCC827 cells for 3 days by MTT assay; conditions: HCC827, 72 h
[5] = tested on: MDA-MB-435; assay: Induction of apoptosis in human MDA-MB-435 cells assessed as necrotic cells at 40 uM for 3 days by Annexin V and PI staining based flow cytometric analysis (reference value: 0.61%); type: functional; conditions: time 3 day
[6] = tested on: HCC827; assay: Induction of apoptosis in human HCC827 cells assessed as late apoptotic cells at 40 uM for 3 days by Annexin V and PI staining based flow cytometric analysis (reference value: 0.05%); type: functional; conditions: time 3 day
[7] = target: Protein arginine N-methyltransferase 6 (Homo sapiens, UniProt Q96LA8)
Description: Inhibition of PRMT6 (unknown origin) by AlphaLISA assay in vitro assay

[8] = tested on: MDA-MB-435; assay: Induction of apoptosis in human MDA-MB-435 cells assessed as late apoptotic cells at 40 uM for 3 days by Annexin V and PI staining based flow cytometric analysis (reference value: 0.45%); type: functional; conditions: time 3 day
[9] = tested on: MDA-MB-435; assay: Induction of apoptosis in human MDA-MB-435 cells assessed as early apoptotic cells at 40 uM for 3 days by Annexin V and PI staining based flow cytometric analysis (reference value: 0.38%); type: functional; conditions: time 3 day
[10] = tested on: HCC827; assay: Antiproliferative activity against human HCC827 cells for 7 days by MTT assay; conditions: HCC827, 168 h
[11] = tested on: MDA-MB-435; assay: Antiproliferative activity against human MDA-MB-435 cells for 7 days by MTT assay; conditions: MDA-MB-435, 168 h
[12] = tested on: HCC827; assay: Induction of apoptosis in human HCC827 cells assessed as necrotic cells at 40 uM for 3 days by Annexin V and PI staining based flow cytometric analysis (reference value: 0.65%); type: functional; conditions: time 3 day
[13] = tested on: HCC827; assay: Antiproliferative activity against human HCC827 cells for 5 days by MTT assay; conditions: HCC827, 120 h

Protein arginine N-methyltransferase 6, sequence (Q96LA8 whole entry): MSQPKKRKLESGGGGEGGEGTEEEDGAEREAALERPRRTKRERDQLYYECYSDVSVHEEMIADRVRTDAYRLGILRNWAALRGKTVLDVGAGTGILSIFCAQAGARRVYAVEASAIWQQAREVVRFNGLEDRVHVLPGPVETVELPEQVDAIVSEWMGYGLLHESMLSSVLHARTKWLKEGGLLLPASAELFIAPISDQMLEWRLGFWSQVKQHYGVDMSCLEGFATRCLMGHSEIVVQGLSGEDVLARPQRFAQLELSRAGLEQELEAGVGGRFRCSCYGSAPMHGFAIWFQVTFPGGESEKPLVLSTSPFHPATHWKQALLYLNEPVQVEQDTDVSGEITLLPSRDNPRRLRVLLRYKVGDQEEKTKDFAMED

| Structure (SMILES) | IC50 [7] | also measured |
| --- | --- | --- |
| CNCCN(C)Cc1c[nH]nc1-c1ccc(O[C@H]2C[C@H](OCCC3CCOCC3)C2)cc1 | 0.0071 µM | IC50 [1]: 94.7 µM; IC50 [2]: 90.4 µM; Activity [3]: 3.11%; IC50 [4]: > 100 µM; Activity [5]: 0.64%; Activity [6]: 6.69%; Activity [8]: 2.82%; Activity [9]: 0.93%; IC50 [10]: 4.15 µM; IC50 [11]: 1.1 µM; Activity [12]: 3.65%; IC50 [13]: 8.57 µM |
| CN(CCN)Cc1cncc(-c2cccc(NS(=O)(=O)c3cccs3)c2)c1 | > 5 µM | – |
| CN(CCN)Cc1cncc(-c2ccc(CN3CCOCC3)cc2)c1 | 5.24 µM | – |
| CNCCN(C)Cc1cncc(-c2cccc(NS(=O)(=O)c3ccc(C)cc3)c2)c1 | > 5 µM | – |
| CNCCN(C)Cc1cncc(-c2cccc(NS(=O)(=O)C(F)(F)F)c2)c1 | 0.684 µM | – |
| CNCCN(C)Cc1cncc(-c2cccc(NS(=O)(=O)c3cccs3)c2)c1 | 2.57 µM | – |
| CNCCN(C)Cc1cncc(-c2cccc(N(S(=O)(=O)c3ccc(C(F)(F)F)cc3)S(=O)(=O)c3ccc(C(F)(F)F)cc3)c2)c1 | > 5 µM | – |
| CNCCN(C)Cc1cncc(-c2cccc(NS(=O)(=O)c3ccc([N+](=O)[O-])cc3)c2)c1 | > 5 µM | – |
| CN(CCN)Cc1cncc(-c2cccc(NS(=O)(=O)c3ccc([N+](=O)[O-])cc3)c2)c1 | > 5 µM | – |
| NCCNC(=O)c1cncc(-c2ccc(NS(=O)(=O)C3CC3)cc2)c1 | > 5 µM | – |
| CN(CCN)Cc1cncc(-c2cccc(NS(=O)(=O)C3CC3)c2)c1 | 2.97 µM | – |
| CN(CCN)Cc1cncc(-c2ccc(OC(F)(F)F)cc2)c1 | 6.36 µM | – |
| CNCCN(C)Cc1cc(-c2ccc(NS(=O)(=O)C3CC3)cc2)ccn1 | 1.06 µM | – |
| CNCCN(C)Cc1cncc(-c2ccc(NS(=O)(=O)C(F)(F)F)cc2)c1 | 0.213 µM | – |
| CNCCN(C)C(=O)c1cncc(-c2ccc(NS(=O)(=O)C3CC3)cc2)c1 | > 5 µM | – |
| CNCCN(C)Cc1cncc(-c2cccc(NS(=O)(=O)N(C)C)c2)c1 | 2.83 µM | – |
| CN(CCN)Cc1cncc(-c2cccc(NS(=O)(=O)N(C)C)c2)c1 | 4.4 µM | – |
| CN(CCN)Cc1cncc(-c2cccc(NS(=O)(=O)c3cnn(C)c3)c2)c1 | > 5 µM | – |

| Structure (SMILES) | IC50 [7] | also measured |
| --- | --- | --- |
| CNCCN(C)Cc1cncc(-c2ccc(NC(=O)N3CCOCC3)cc2)c1 | 1.35 µM | – |
| CNCCN(C)Cc1cncc(-c2cccc(NC(=O)N3CCOCC3)c2)c1 | 1.54 µM | – |
| COc1cc(OC)cc(-c2cncc(CN(C)CCN)c2)c1 | > 10 µM | – |
| CNCCN(C)Cc1cncc(-c2cccc(NS(=O)(=O)c3ccc(C(F)(F)F)cc3)c2)c1 | > 5 µM | – |
| CNCCNC(=O)c1cncc(-c2ccc(NS(=O)(=O)C3CC3)cc2)c1 | > 5 µM | – |
| CNCCN(C)Cc1ccnc(-c2ccc(NS(=O)(=O)C3CC3)cc2)c1 | 0.03 µM | – |
| CNCCN(C)Cc1ccncc1-c1ccc(NS(=O)(=O)C2CC2)cc1 | 3.09 µM | – |
| CN(CCN)C(=O)c1cncc(-c2ccc(NS(=O)(=O)C3CC3)cc2)c1 | > 5 µM | – |
| CNCCN(C)Cc1cncc(-c2cccc(NS(=O)(=O)c3ccccc3C)c2)c1 | 1.05 µM | – |
| CN(CCN)Cc1cncc(-c2ccc(NS(=O)(=O)C3CC3)cc2)c1 | 1.8 µM | – |
| CNCCN(C)Cc1cncc(-c2cccc(N(S(=O)(=O)c3ccccc3C)S(=O)(=O)c3ccccc3C)c2)c1 | > 5 µM | – |
| CNCCN(C)Cc1cncc(-c2cccc(NC(=O)C(C)C)c2)c1 | 1.59 µM | – |
| CNCCN(C)Cc1cncc(-c2cccc(NS(=O)(=O)c3cnn(C)c3)c2)c1 | > 5 µM | – |
| CNCCN(C)Cc1cncc(-c2cccc(NS(=O)(=O)Cc3ccccc3)c2)c1 | > 5 µM | – |
| CNCCN(C)C(=O)c1cncc(-c2cccc(NS(=O)(=O)C3CC3)c2)c1 | > 5 µM | – |
| CNCCN(C)Cc1cncc(-c2cccc(NS(=O)(=O)C3CC3)c2)c1 | 0.262 µM | – |
| Nc1ncnc2c1ncn2[C@@H]1O[C@H](CSCC[C@H](N)C(=O)O)[C@@H](O)[C@H]1O [S-ADENOSYLHOMOCYSTEINE] | 2.18 µM | – |
